Consider 12 compounds from US5994357A, “Method of treatment for interstitial cystitis” (priority 1994, dated 1999).

Data set [1] is classed as in vivo, human (female patients). To be noted: for relief by previous treatment: six DMSO treatments and one heparin treatment. As to the method: They were administered a 75 mg oral dose of hydroxyzine pamoate per day. After 5 days the burning sensation upon voiding and sharp pelvic pain disappeared. In two months, the extreme tenderness from their chest area to pelvic area also disappeared. After about 10 to 12 weeks frequency was eliminated. […] Upon discontinuing administration of hydroxyzine pamoate symptoms reappeared within 24 hours or less. After one year of treatment, the subject takes 50 mg and 25 mg of hydroxyzine pamoate, respectively, on alternating days, with continued 100% success.
This person three was diagnosed with interstitial cystitis in March 1989. […] Their symptoms included constant burning in the bladder, pain at the connection of the buttocks with the upper legs and painful sexual intercourse. They could not sleep although their need to urinate was only about four times per night. Sitting on "blue ice" packs wrapped in a cloth provided some relief from the buttock pain and the burning.
This is person one who experienced increasing problems over the last 10 years until it became difficult to function as a nurse, parent and spouse. […] They had not received any treatment since February 1990 and was experienceing a flare up of symptoms when they tried hydroxyzine-HCl. […]

The test system of the next data set is bladder mast cells. The experiment in a line: Inhibition of neurohormonal activation of bladder mast cell secretion. In kind it is cell-based. To be noted: for inhibition of neurohormonal activation of bladder mast cell secretion (in words): found by the applicant. The source says: "Inhibitor of neurohormonal activation of mast cell secretion" refers to any substance or group of substances, devoid of any psychotropic effects which prevent the stimulation of mast cell secretion by hormones or molecules produced by nervous tissue. Whether or not a pharmacologically active substance is an inhibitor of neurohormonal activation of mast cell secretion can be determined by using the following procedure: Mast cells purified from peritoneal cavities of rats and stimulated by a neuropeptide, such as somatostatin (Theoharides, T. C. and Douglas, W. W. Endocrinology 102:1637-1640, 1978), or rat brain slices stimulated by substance P in special perfusion chambers (Dimitriadou, V., Buzzi, M. G., Moskowitz, M. A. and Theoharides, T. C. Neuroscience 44:27-39, 1991) or rat bladder mast cells stimulated by carbachol in special perfusion chambers (Theoharides, T. C. and Sant, G. R. Seminars Urology […], 1991) will first be […] with concentration of the agents to be tested ranging from 0.1 μmol/L-to-100 μmol/L of solution for varying amounts of time at 37° C. to determine their ability to inhibit subsequent mast cell secretion as described above.
These compounds can be tested by preincubating mast cells purified from the peritoneal cavity of rats with various concentrations of compound, typically 0.1 μmol/L to 1,000 μmol/L, for various times at 37° C. before stimulating mast ctll secretion with a stimulus such as somatostatin (Theoharides, T. C. and Douglas, W. W. Somatostatin induces histamine secretion from rat peritoneal mast cells. Endocrinology 102:1637-1640, 1978).
(§1) More appropriate to interstitial cystitis, bladder mast cells can be triggered to secrete in situ using slices of rodent bladders in perfusion chambers and measuring secreted chemicals (Theoharides, T. C. and Sant, G. R. Bladder mast cell activation in interstitial cystitis. Seminars Urology 9:74-87, 1991).

The test system of another data set is Rat Bladder Mast Cells. Briefly: ID20 for histamine release, inhibition of mast cell secretion by H-1 receptor antagonists in vitro (Table 5). In kind it is cell-based. To be noted: inhibitory dose causing 20% inhibition, read-out: ID20 for Histamine Release from Rat Bladder Mast Cells.
Description: "Inhibitor of neurohormonal activation of mast cell secretion" refers to any substance or group of substances, devoid of any psychotropic effects which prevent the stimulation of mast cell secretion by hormones or molecules produced by nervous tissue.
as §1

For data set [2] the following is noted: cited from earlier work.
The conditions of data set [3]: cited from earlier work. The source holds these as a separate data set.
A short description of data set [4]: Anticholinergic and anxiolytic properties. Particulars: decreasing frequency.
A further data set deals with neurons. The experiment in a line: Inhibition of neuropeptide release from neurons stimulated by high K^+. The class given is cell-based.
The mark [5] stands for this setting: Example 2, patient three, since March 1991.
[6] abbreviates: Example 2, patient three, 25 mg.
Where [7] appears, read: Example 1, patient two, 75 mg oral per day.

Structures can show the parent of a compound that is named as a salt. Where only a bound is given, the exact number is not on record here.

In the case of `OCCOCCN1CCN(C(c2ccccc2)c2ccc(Cl)cc2)CC1` (racemic) [hydroxyzine-HCl], in data set [1] (Example 2, patient three), the “pain on sexual intercourse” value is given as “no longer associated with severe bladder pain”, the quality of life result is listed as “definitely improved the quality of their life” and the “tolerance of offending foods” value was “they can eat some offending foods in small quantities”. In addition, in data set [1] (setting [5]), the “burning in the bladder” value is listed as “the burning has subsided significantly” and the buttock pain result was “the buttock pain is reduced”. Further, in data set [1] (Example 3, patient one, 2 or 3 occasions), the “symptoms on attempted withdrawal of the drug” value is recorded as “definite increase in interstitial cystitissymptoms”. Moreover, in data set [1] (Example 3, patient one, 25 to 50 mg daily), the bladder comfort entry is reported as “almost total bladder comfort”. Moreover, the control of symptoms result in data set [1] (Example 3, patient one, daily since May 1990) is reported as “remarkable control of symptoms”.

As to `CN1CCC(=C2c3ccccc3CCc3cccnc32)CC1` [Azatadine], in the data set on bladder mast cells, the “inhibition of neurohormonal activation of bladder mast cell secretion (in words)” value is listed as “inhibit neurohormonal activation of bladder mast cell secretion”. For the same compound, the IC20 in the data set with Rat Bladder Mast Cells was found to be 1 µM.

For the compound `CN1CCCC(n2nc(Cc3ccc(Cl)cc3)c3ccccc3c2=O)CC1` (stereo not drawn) [Azelastine], the “inhibition of neurohormonal activation of bladder mast cell secretion (in words)” value with bladder mast cells is reported as “inhibit neurohormonal activation of bladder mast cell secretion”. The IC20 with Rat Bladder Mast Cells turned out to be 1 µM.

On to `C[S+](C)[O-]` [DMSO, dimethylsulfoxide], for which the “relief by previous treatment” value in data set [1] (Example 2, patient three) is “very limited relief”. Further, in data set [1] (Example 3, patient one), the “improvement by previous treatment” value is listed as “fairly good improvement”. In addition, in data set [2] (intravesical), the “side effects: bladder and urethra” value is “Bladder spasms and irritability may be experienced with DMSO treatment, as well as urethral burning during voiding”. The “side effects: breath odor and taste” value in data set [2] (intravesical, most patients) was “garlic-like breath odor and a similar taste in their mouths”. In data set [3] (intravesical), the pulmonary excretion result is “pulmonary excretion of a small percentage of the DMSO as dimethyl sulfide”.

Take `OCCOCCN1CCN(C(c2ccccc2)c2ccc(Cl)cc2)CC1` (stereo not drawn) [Hydroxyzine]: the “relief from frequency, dysuria, pain” value in data set [1] (9 females, 25 mg twice - three times/day × 8 months, alternate 25 mg every other day past 8 months) is reported as 80-100%. For the same compound, in data set [1] (human, in vivo), the “Problems (side effects)” value is recorded as “Mild sedation, weakness × 1 week”. The “anticholinergic properties (in words)” value in data set [4] is reported as “strong anticholinergic properties decreasing frequency”. Also, the “inhibition of secretion from stimulated bladder mast cells (in words)” value in the data set on bladder mast cells (Table 3, unique characteristics) is “inhibits secretion from stimulated bladder mast cells”. Also, in the data set on bladder mast cells, the “inhibition of neurohormonal activation of bladder mast cell secretion (in words)” value was “inhibit neurohormonal activation of bladder mast cell secretion”. In addition, the “inhibition of neuropeptide release from neurons (in words)” value with neurons is listed as “inhibits neuropeptide release from neurons”. The IC20 in the data set with Rat Bladder Mast Cells was determined as 50 µM.

With `CN1CCC(=C2c3ccccc3CC(=O)c3sccc32)CC1` [Ketotifen], the “inhibition of neurohormonal activation of bladder mast cell secretion (in words)” value in the data set with bladder mast cells is recorded as “inhibit neurohormonal activation of bladder mast cell secretion”.

As for `CN(C)CCC=C1c2ccccc2CCc2ccccc21` [amitriptyline], the “success of previous treatment” value in data set [1] (Example 1, patient two, conventional methods and amitriptyline) was “limited success”. Also, in data set [1] (setting [6]), the “effect of previous treatment on sleep” value is “enabled them to sleep some” and the “foods bringing symptoms on previous treatment” value was “many foods still brought severe symptoms”. Moreover, the side effects entry in data set [2] (human, in vivo) is reported as “troublesome side effects such as hypotension, tachycardia, anxiety, or palpitations”.

Turning to `O=C(O)COCCN1CCN(C(c2ccccc2)c2ccc(Cl)cc2)CC1` (stereo not drawn) [cetirizine], the “inhibition of neurohormonal activation of bladder mast cell secretion (in words)” value in the data set on bladder mast cells is given as “inhibit neurohormonal activation of bladder mast cell secretion”.

As for `OCCOCCN1CCN(C(c2ccccc2)c2ccc(Cl)cc2)CC1` (stereo not drawn) [hydroxyzine pamoate], in data set [1] (Example 1, patient two), the patient-reported state result is recorded as “felt 100% normal” and the “time to reappearance of symptoms upon discontinuing administration” value was at most 24 h. Besides, in data set [1] (setting [7]), the “time to disappearance of burning sensation upon voiding and sharp pelvic pain” value stood at 5 days; the “time to disappearance of extreme tenderness from chest area to pelvic area” value is on record as “two”. Besides, the “continued success after one year of treatment” value in data set [1] (Example 1, patient two, 50 mg and 25 mg on alternating days) was found to be 100%.

On to `CN(C)CCN(Cc1ccccc1)c1ccccn1` [pyribenzamine], for which, in data set [2] (oral, 50 mg three times daily), the “duration of the response” value is listed as “variable” and the symptomatic improvement result is on record as “some symptomatic improvement”.

For the compound heparin, in data set [1] (Example 2, patient three), the “relief by previous treatment” value is recorded as “very limited relief”.

Turning to sodium pentosan polysulfate, in data set [2] (oral or intravesical administration), the “replacement of the protective surface mucin” value is “replace the protective surface mucin”. Moreover, the duration entry in data set [3] (must be taken numerous times per day) was “short duration”. In data set [3] (oral), the “amount of drug reaching the site of treatment” value is recorded as “only a small amount of the drug will reach the site of treatment” and the metabolism entry is “primarily liver-metabolized”.
